Measured values: article doi:10.1101/2021.09.30.462449v1 (biorxiv, 2021)
Where two headings read alike, the source gives them in different places.

Legend:
MLCK (MLCK2) = MLCK (MLCK2) (Homo sapiens, UniProt Q32MK0); assay: biochemical; conditions: read-out: % inhibition mean (Lanthascreen)
PDK1 = PDK1 (Homo sapiens, UniProt O15530); assay: biochemical
PIK3C2A (PI3K-C2 alpha) = PIK3C2A (PI3K-C2 alpha) (Homo sapiens, UniProt O00443); assay: biochemical; conditions: read-out: % inhibition mean (Adapta)
PIP5K1A = PIP5K1A (Homo sapiens, UniProt Q99755); assay: biochemical; conditions: read-out: % inhibition mean (Adapta)
PIK3C2G (PI3K-C2 gamma) = PIK3C2G (PI3K-C2 gamma) (Homo sapiens, UniProt O75747); assay: biochemical; conditions: read-out: % inhibition mean (Adapta)
PIP4K2A = PIP4K2A (Homo sapiens, UniProt P48426); assay: biochemical; conditions: read-out: % inhibition mean (Adapta)
PI4KB (PI4K beta) = PI4KB (PI4K beta) (Homo sapiens, UniProt Q9UBF8); assay: biochemical; conditions: read-out: % inhibition mean (Adapta)
PIP5K1B = PIP5K1B (Homo sapiens, UniProt O14986); assay: biochemical; conditions: read-out: % inhibition mean (Adapta)
[1] = target: PIK3CB/PIK3R2 (p110 beta/p85 beta) (Homo sapiens, UniProt P42338); assay: biochemical; conditions: read-out: % inhibition mean (Adapta)
LRRK2 R1441C = LRRK2 R1441C (Homo sapiens, UniProt Q5S007, R1441C); assay: biochemical; conditions: read-out: % inhibition mean (Adapta)
LRRK2 G2019S = LRRK2 G2019S (Homo sapiens, UniProt Q5S007, G2019S); assay: biochemical; conditions: read-out: % inhibition mean (Adapta)
[2] = target: PIK3CD/PIK3R1 (p110 delta/p85 alpha) (Homo sapiens, UniProt O00329); assay: biochemical; conditions: read-out: % inhibition mean (Adapta)
NUAK1 (ARK5) = NUAK1 (ARK5) (Homo sapiens, UniProt O60285); assay: biochemical; conditions: read-out: % inhibition mean (Adapta)
CHUK (IKK alpha) = CHUK (IKK alpha) (Homo sapiens, UniProt O15111); assay: biochemical; conditions: read-out: % inhibition mean (Adapta)
CDK9/cyclin T1 = CDK9/cyclin T1 (Homo sapiens, UniProt P50750); assay: biochemical; conditions: read-out: % inhibition mean (Adapta)
PIP5K1C = PIP5K1C (Homo sapiens, UniProt O60331); assay: biochemical; conditions: read-out: % inhibition mean (Adapta)
[3] = target: PIK3CB/PIK3R1 (p110 beta/p85 alpha) (Homo sapiens, UniProt P42338); assay: biochemical; conditions: read-out: % inhibition mean (Adapta)
CDK4/cyclin D3 = CDK4/cyclin D3 (Homo sapiens, UniProt P11802); assay: biochemical; conditions: read-out: % inhibition mean (Adapta)
GSG2 (Haspin) = GSG2 (Haspin) (Homo sapiens, UniProt Q8TF76); assay: biochemical; conditions: read-out: % inhibition mean (Adapta)
CAMK1 (CaMK1) = CAMK1 (CaMK1) (Homo sapiens, UniProt Q14012); assay: biochemical; conditions: read-out: % inhibition mean (Adapta)
PL^pro = PL^pro (Severe acute respiratory syndrome coronavirus 2, UniProt P0DTD1); assay: FRET peptide cleavage assay; assay type: biochemical
KIT T670I = KIT T670I (Homo sapiens, UniProt P10721, T670I); assay: biochemical; conditions: read-out: % inhibition mean (Z'Lyte)
GRK4 = GRK4 (Homo sapiens, UniProt P32298); assay: biochemical; conditions: read-out: % inhibition mean (Z'Lyte)
PRKD1 (PKC mu) = PRKD1 (PKC mu) (Homo sapiens, UniProt Q15139); assay: biochemical; conditions: read-out: % inhibition mean (Z'Lyte)
PRKD2 (PKD2) = PRKD2 (PKD2) (Homo sapiens, UniProt Q9BZL6); assay: biochemical; conditions: read-out: % inhibition mean (Z'Lyte)
FRK (PTK5) = FRK (PTK5) (Homo sapiens, UniProt P42685); assay: biochemical; conditions: read-out: % inhibition mean (Z'Lyte)
DYRK1B = DYRK1B (Homo sapiens, UniProt Q9Y463); assay: biochemical; conditions: read-out: % inhibition mean (Z'Lyte)
LTK (TYK1) = LTK (TYK1) (Homo sapiens, UniProt P29376); assay: biochemical; conditions: read-out: % inhibition mean (Z'Lyte)

PDK1, sequence (O15530 whole entry): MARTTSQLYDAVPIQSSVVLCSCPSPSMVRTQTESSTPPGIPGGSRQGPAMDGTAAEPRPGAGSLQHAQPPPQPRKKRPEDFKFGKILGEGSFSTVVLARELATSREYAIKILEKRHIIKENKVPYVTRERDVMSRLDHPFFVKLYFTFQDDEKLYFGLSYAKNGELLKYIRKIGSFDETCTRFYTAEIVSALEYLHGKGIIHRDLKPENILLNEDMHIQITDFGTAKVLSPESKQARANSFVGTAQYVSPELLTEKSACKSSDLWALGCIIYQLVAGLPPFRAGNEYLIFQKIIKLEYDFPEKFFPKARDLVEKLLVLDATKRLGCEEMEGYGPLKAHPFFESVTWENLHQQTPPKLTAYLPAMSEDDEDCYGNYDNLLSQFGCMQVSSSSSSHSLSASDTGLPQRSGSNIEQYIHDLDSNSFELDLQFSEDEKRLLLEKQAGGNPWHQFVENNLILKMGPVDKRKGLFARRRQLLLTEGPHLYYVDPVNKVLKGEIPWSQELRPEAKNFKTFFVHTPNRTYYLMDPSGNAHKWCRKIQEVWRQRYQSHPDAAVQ
CHUK (IKK alpha), sequence (O15111 whole entry): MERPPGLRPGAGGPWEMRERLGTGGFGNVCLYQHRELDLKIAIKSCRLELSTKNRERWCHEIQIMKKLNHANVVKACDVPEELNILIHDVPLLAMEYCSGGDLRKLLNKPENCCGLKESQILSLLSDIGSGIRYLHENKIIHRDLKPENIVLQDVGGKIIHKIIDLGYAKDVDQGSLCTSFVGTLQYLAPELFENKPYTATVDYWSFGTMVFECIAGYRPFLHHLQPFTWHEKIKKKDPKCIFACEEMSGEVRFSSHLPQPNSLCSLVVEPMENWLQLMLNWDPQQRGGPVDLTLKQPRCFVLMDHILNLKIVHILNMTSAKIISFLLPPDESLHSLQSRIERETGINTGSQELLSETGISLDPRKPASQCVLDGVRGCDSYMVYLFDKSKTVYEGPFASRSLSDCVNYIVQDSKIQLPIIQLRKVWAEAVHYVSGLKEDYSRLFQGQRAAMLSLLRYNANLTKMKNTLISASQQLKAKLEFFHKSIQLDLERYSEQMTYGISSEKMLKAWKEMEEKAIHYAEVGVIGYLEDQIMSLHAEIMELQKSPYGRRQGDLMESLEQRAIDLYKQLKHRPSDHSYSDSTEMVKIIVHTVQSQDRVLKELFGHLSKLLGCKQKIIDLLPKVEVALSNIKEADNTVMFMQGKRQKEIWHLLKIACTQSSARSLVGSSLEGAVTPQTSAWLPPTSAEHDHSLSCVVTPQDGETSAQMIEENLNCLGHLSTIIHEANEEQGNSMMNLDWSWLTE
GRK4, sequence (P32298 whole entry): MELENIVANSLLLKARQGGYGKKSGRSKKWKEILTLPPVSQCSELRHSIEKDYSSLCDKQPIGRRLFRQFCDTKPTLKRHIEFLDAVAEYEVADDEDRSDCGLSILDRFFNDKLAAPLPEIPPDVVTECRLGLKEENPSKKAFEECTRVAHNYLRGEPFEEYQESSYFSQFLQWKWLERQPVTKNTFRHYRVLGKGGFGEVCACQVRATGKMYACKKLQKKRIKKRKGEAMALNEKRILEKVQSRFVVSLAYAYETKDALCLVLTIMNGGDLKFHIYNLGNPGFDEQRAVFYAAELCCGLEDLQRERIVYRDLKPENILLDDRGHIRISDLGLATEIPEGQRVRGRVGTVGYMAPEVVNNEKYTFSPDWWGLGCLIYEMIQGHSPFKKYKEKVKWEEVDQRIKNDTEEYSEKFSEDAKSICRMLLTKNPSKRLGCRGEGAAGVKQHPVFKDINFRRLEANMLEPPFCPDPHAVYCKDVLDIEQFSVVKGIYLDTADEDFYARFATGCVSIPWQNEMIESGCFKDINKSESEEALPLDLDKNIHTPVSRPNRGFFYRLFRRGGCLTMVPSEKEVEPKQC
LRRK2 R1441C, sequence (Q5S007 whole entry R1441C): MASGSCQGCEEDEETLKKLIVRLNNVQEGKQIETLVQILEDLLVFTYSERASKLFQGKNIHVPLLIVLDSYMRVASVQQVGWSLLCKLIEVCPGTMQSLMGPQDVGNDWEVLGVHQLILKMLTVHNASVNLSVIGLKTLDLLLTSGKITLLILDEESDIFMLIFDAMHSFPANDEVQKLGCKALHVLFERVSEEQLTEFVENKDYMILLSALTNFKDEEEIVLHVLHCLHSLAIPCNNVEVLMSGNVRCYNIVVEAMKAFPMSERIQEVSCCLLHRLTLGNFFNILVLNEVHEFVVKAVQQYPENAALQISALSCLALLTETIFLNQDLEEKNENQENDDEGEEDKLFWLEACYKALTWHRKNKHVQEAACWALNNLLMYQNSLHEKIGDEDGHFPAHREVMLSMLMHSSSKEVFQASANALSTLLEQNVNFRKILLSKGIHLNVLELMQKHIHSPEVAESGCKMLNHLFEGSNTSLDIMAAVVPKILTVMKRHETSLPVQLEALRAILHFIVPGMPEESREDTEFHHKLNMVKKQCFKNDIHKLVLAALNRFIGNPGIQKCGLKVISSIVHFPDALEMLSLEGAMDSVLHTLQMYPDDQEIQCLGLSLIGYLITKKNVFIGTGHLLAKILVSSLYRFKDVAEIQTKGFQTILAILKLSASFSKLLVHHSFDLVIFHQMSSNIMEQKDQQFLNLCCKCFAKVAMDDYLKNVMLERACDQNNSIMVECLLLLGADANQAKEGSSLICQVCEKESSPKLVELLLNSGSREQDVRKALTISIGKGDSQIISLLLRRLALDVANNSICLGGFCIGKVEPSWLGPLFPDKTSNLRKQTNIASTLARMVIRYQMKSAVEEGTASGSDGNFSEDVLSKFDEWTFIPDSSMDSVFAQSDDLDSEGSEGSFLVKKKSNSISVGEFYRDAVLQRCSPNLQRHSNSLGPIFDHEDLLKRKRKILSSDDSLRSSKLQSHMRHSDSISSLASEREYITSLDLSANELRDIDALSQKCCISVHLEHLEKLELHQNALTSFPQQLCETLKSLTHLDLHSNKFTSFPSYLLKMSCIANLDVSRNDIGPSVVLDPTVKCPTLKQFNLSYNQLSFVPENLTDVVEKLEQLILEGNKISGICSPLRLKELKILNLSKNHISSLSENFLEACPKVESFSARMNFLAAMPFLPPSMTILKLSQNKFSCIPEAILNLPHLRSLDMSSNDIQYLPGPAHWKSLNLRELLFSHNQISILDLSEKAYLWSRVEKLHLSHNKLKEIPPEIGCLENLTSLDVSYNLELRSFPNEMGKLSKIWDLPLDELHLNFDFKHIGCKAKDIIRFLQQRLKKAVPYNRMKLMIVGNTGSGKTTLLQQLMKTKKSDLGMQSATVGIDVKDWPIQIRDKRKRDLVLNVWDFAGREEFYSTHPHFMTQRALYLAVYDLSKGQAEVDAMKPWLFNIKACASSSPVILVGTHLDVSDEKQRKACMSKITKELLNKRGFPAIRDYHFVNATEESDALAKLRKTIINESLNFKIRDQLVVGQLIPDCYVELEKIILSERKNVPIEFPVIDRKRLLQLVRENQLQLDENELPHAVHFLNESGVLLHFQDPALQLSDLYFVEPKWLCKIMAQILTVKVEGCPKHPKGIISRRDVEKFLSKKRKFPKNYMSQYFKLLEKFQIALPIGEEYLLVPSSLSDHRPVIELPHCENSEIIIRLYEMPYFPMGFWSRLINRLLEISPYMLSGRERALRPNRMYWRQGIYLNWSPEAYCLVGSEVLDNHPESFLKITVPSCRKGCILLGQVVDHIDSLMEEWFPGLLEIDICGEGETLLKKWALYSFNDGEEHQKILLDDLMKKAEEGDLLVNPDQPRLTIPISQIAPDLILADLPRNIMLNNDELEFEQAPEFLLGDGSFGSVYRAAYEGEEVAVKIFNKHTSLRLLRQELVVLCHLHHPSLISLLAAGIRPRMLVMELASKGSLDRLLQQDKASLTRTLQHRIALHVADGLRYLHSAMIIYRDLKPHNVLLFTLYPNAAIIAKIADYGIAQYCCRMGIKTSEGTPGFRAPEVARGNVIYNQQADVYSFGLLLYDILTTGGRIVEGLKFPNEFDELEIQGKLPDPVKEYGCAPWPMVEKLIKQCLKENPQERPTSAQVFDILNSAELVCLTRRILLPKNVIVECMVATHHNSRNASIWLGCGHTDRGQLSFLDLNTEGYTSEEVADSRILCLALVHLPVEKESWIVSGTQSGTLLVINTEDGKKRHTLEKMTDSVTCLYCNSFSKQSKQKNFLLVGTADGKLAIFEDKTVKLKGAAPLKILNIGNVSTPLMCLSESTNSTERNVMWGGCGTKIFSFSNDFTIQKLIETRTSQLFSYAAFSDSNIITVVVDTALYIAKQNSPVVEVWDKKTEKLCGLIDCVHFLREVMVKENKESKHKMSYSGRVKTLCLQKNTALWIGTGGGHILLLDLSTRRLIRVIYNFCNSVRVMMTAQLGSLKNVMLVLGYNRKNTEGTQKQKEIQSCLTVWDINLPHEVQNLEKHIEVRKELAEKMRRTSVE
PIP5K1A, sequence (Q99755 whole entry): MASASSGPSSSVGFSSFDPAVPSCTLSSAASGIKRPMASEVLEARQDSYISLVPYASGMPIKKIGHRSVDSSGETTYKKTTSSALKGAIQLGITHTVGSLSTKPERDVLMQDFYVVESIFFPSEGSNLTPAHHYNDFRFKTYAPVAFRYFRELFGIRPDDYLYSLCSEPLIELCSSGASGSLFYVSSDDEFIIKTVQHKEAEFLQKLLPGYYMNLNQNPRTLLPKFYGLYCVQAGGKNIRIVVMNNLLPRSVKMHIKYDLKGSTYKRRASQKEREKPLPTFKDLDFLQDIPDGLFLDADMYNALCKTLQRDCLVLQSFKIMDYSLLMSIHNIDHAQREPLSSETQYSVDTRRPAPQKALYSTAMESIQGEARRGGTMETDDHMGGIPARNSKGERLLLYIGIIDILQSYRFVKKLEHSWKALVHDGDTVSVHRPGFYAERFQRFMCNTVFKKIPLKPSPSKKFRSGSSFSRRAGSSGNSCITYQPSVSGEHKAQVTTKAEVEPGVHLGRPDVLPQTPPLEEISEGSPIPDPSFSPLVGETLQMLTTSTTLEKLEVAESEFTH
LRRK2 G2019S, sequence (Q5S007 whole entry G2019S): as the sequence (Q5S007 whole entry R1441C) above, with C1441R, G2019S counted along it

SMILES: COc1ccc2nc3cc(Cl)ccc3c(Nc3cc(CN4CCCC4)c(O)c(CN4CCCC4)c3)c2n1 [Pyronaridine, 4-[(7-Chloro-2-methoxybenzo[b][1,5]naphthyridin-10-yl)amino]-2,6-bis(1-pyrrolidinylmethyl)phenol phosphate (1:4)]
- inhibition at 1 µM (MLCK (MLCK2)): -6%
- inhibition at 1 µM (PDK1; read-out: % inhibition mean (Z'Lyte)): 0%
- inhibition at 1 µM (PDK1; read-out: % inhibition mean (Z'Lyte), direct format): 7%
- inhibition at 1 µM (PIK3C2A (PI3K-C2 alpha)): -1%
- inhibition at 1 µM (PIP5K1A): -6%
- inhibition at 1 µM (PIK3C2G (PI3K-C2 gamma)): 3%
- inhibition at 1 µM (PIP4K2A): 15%
- inhibition at 1 µM (PI4KB (PI4K beta)): 5%
- inhibition at 1 µM (PIP5K1B): -11%
- inhibition at 1 µM [1]: -2%
- inhibition at 1 µM (LRRK2 R1441C): -7%
- inhibition at 1 µM (LRRK2 G2019S): 4%
- inhibition at 1 µM [2]: 9%
- inhibition at 1 µM (NUAK1 (ARK5)): 11%
- inhibition at 1 µM (CHUK (IKK alpha)): 0%
- inhibition at 1 µM (CDK9/cyclin T1): 5%
- inhibition at 1 µM (PIP5K1C): -3%
- inhibition at 1 µM [3]: -11%
- inhibition at 1 µM (CDK4/cyclin D3): -6%
- inhibition at 1 µM (GSG2 (Haspin)): 9%
- inhibition at 1 µM (CAMK1 (CaMK1)): 35%
- IC50 (PL^pro): 1.86 ± 0.58 µM
- inhibition at 1 µM (KIT T670I): 1%
- inhibition at 1 µM (GRK4): 25%
- inhibition at 1 µM (PRKD1 (PKC mu)): -2%
- inhibition at 1 µM (PRKD2 (PKD2)): -4%
- inhibition at 1 µM (FRK (PTK5)): -2%
- inhibition at 1 µM (DYRK1B): 1%
- inhibition at 1 µM (LTK (TYK1)): -1%
